Source: US20180354909A1, “SUBSTITUTED BENZIMIDAZOLIUM, PYRIDO-IMIDAZOLIUM, OR PYRAZINO-IMIDAZOLIUM COMPOUNDS AS CHEMOTHERAPEUTICS” (The Board of Regents of the University of Texas System, priority 2015, published 2018)

Assays:
Murine S9 half-life = type: in vitro ADME; conditions: mouse, S9 fraction; murine S9, Phase I cofactors; read-out: S9 T1/2
Procedure: 22D. […] (2 mM in DMSO) was incubated with Murine S9 (Lot KWB) fraction and Phase I (NADPH Regenerating System) cofactors for 0-240 minutes. Reactions were quenched with 1 mL (1:1) of methanol containing 0.2% formic acid and 100 ng/ml IS (IS final conc.=50 ng/mL). Samples were vortexed for 15 seconds, incubated at RT for 10 minutes and spun for 5 minutes at 2400 rpm. Supernatant (1 mL) was then transferred to an eppendorf tube and spun in a table top, chilled centrifuge for 5 minutes at 13.2K rpm. Supernatant (800 uL) was transferred to an HPLC vial (w/out insert). Analyzed by Qtrap 3200 mass spectrometer. These methods were used data obtained in the FIGS. 22A and 22D.

[1] = In vitro plasma half-life; type: in vitro ADME; conditions: mouse, plasma, murine plasma, read-out: Plasma T1/2 (converted)
Procedure: (§1) 12M11 (2 μM final concentration) was incubated with murine plasma and saline for 0-1440 minutes. Reactions were quenched with 200 μl (1:2) of methanol containing 0.1% formic acid and 200 ng/ml IS (IS final conc.=100 ng/mL). Samples were vortexed for 15 seconds, incubated at RT for 10 minutes and spun for 5 minutes at 13.2K rpm. Supernatant ([…]) was then transferred to an eppendorf tube and spun in a table top, chilled centrifuge for 5 minutes at 13.2K rpm. Supernatant (800 μL) was transferred to an HPLC vial (w/out insert). Analyzed by Qtrap 3200 mass spectrometer. These methods were used data obtained in the FIGS. 22C and 22F.

Mut6 = assay: Cytotox testing (CellTiter-Glo ATP assay) in Mut6 cells; type: cell-based, mouse; conditions: Mus musculus, 96 h, Mut6 cells, 4 days, CellTiter-Glo; read-out: Activity in Mut6 [EC50]
Procedure: Mut6 tumor cells were cultured in DMEM/F12 media supplemented by EGF (10 ng/mL), basic FGF (10 ng/mL), heparin (4 ug/mL), glucose (total 21 mM), NaHCO3 (113 μg/mL), Hepes (119 μg/mL), glutamine (2 mM), sodium pyruvate (1 mM), N2 supplement (ThermoFisher Gibco 17502-048, 100×, at 100-fold dilution), B27 supplement (ThermoFisher Gibco 12587-010, 50×, at 100-fold dilution), and penicillin/streptomycin (ThermoFisher, final 1%). Cells were maintained in Ultra-low attachment plate (Corning) as sphere-forming cells. For ATP assays and protein/RNA isolation, cells were plated into 96-well plates or 6-well plated that were coated with poly-lysine (Sigma P6407, 10 μg/mL in PBS, 4 hr at 37° C.) and laminin (ThermoFisher 23017015, ˜5 mg/L in PBS, overnight at 37° C.). MEFs and Astrocytes were cultured in DMEM supplemented with 10% FBS and 1% Penicillin/Streptomycin.
2,000 cells were plated into each well of 96-well plates. About 3 hours later, cells were treated by 12M11, at 800-fold dilution (4 mM stock was diluted into 5 μM final concentration). […] CellTiter-Glo assay (Promega) was performed according to manufacturer's instructions, by adding 20 μL of reagent into each well. Luminescence signal was detected by the PolarStar plate reader (BMG Labtech). Experiments were performed in quadruplicate, and results are presented with mean average −/+ standard deviation. EC505 were calculated by GraphPad Prism6 software.
The compounds described herein were tested using a cell-based cytotoxicity assay against neuronal stem cells in Mut6, which is a mouse glioblastoma model cell line.

[2] = Buffer (saline) stability; type: physicochemical
Procedure: as §1

[3] = system: mitochondrial membrane potential; assay: TMRE mitochondrial membrane potential staining in Mut6 cells; type: cell-based, mouse; conditions: within 30 min
Procedure: TMRE mitochondrial membrane potential assay kit was purchased from Abcam (113852) and the assay was performed according to the manufacturer's protocol. Briefly, cells were pre-incubated with 1 μM 12M11 (10 min or 18 hrs) or 100 nM FCCP (10 min) and incubated for additional 20 min with 200 nM TMRE before pictures were taken.

Q: What does the source list for CC(C)[C@@H]1CC[C@@H](C)CC1OC(=O)Cn1c(-c2ccc([N+](=O)[O-])cc2)[n+](C)c2ccccc21.[I-] (stereo partly drawn)?
A: half-life (Murine S9 half-life): 2.32 h; half-life at 2 μM [1]: 1.5 h; EC50 (Mut6): 1000 to 5000 nM; Buffer Stability [2]: 100%

Q: For CC(C)[C@@H]1CC[C@@H](C)CC1OC(=O)Cn1c(-c2ccc(N3CCCCC3)cc2)[n+](C)c2ccccc21 (stereo partly drawn), which EC50 (Mut6) is on record?
A: < 100 nM

Q: For CCc1n(CC(=O)OC2C[C@H](C)CC[C@H]2C(C)C)c2ccc(OC)cc2[n+]1C (stereo partly drawn), which EC50 (Mut6) is on record?
A: < 100 nM

Q: With COC(=O)Cn1c(-c2cccc(C#N)c2)nc2ccccc21 as the molecule, how does the EC50 (Mut6) read?
A: > 5000 nM

Q: Which half-life at 2 μM [1] does the source give for CC(C)[C@@H]1CC[C@@H](C)CC1OC(=O)Cn1c(-c2cccc(Br)c2)[n+](C)c2ccccc21.[I-] (stereo partly drawn) here?
A: 0.483 h

Q: What about the EC50 (Mut6) of the same molecule?
A: 100 to 1000 nM

Q: And the “Buffer Stability” value [2]?
A: 94%

Q: With CCc1n([C@H](Cc2ccccc2)C(=O)OC2C[C@H](C)CC[C@H]2C(C)C)c2ccccc2[n+]1C (stereo partly drawn) as the molecule, how does the EC50 (Mut6) read?
A: 100 to 1000 nM

Q: For CCc1n(CC(=O)OC2C[C@H](C)CC[C@H]2C(C)C)c2cc(Cl)ccc2[n+]1C (stereo partly drawn), which EC50 (Mut6) is on record?
A: 100 to 1000 nM

Q: Which EC50 (Mut6) does the source give for CC(C)[C@@H]1CC[C@@H](C)CC1OC(=O)[C@@H](C1CC1)n1c(-c2ccc(N(C)C)cc2)[n+](C)c2ccccc21 (stereo partly drawn) here?
A: < 100 nM

Q: Which EC50 (Mut6) does the source give for CCc1n(CC(=O)OCc2ccccc2)c2ccccc2[n+]1C here?
A: > 5000 nM

Q: For CCc1n(CC(=O)OC2C[C@H](C)CC[C@H]2C(C)C)c2cc([N+](=O)[O-])ccc2[n+]1C (stereo partly drawn), which EC50 (Mut6) is on record?
A: 1000 to 5000 nM

Q: Which EC50 (Mut6) does the source give for CCc1n(CC(=O)OC2C[C@H](C)CC[C@H]2C(C)C)c2ccc(C(F)(F)F)cc2[n+]1C (stereo partly drawn) here?
A: 1000 to 5000 nM

Q: Which results are given for CSc1ccc(-c2n(CC(=O)OC3C[C@H](C)CC[C@H]3C(C)C)c3ccccc3[n+]2C)cc1.[I-] (stereo partly drawn)?
A: half-life at 2 μM [1]: 0.167 h; EC50 (Mut6): 100 to 1000 nM; Buffer Stability [2]: 100%

Q: Which EC50 (Mut6) does the source give for CCc1n(CC(=O)OC2C[C@H](C)CC[C@H]2C(C)C)c2ccc(Br)cc2[n+]1C (stereo partly drawn) here?
A: 100 to 1000 nM

Q: For CC(C)[C@@H]1CC[C@@H](C)CC1OC(=O)Cn1c(-c2cccc(C(F)(F)F)c2)[n+](C)c2ccccc21.[I-] (stereo partly drawn), which half-life (Murine S9 half-life) is on record?
A: > 4 h

Q: What about the half-life at 2 μM [1] of the same molecule?
A: 4 h

Q: What about the EC50 (Mut6) of the same molecule?
A: 100 to 1000 nM

Q: And the “Buffer Stability” value [2]?
A: 100%

Q: Which EC50 (Mut6) does the source give for CC(C)[C@@H]1CC[C@@H](C)CC1OC(=O)Cn1c(-c2ccc(N3CCCC3)cc2)[n+](C)c2ccccc21 (stereo partly drawn) here?
A: < 100 nM

Q: With N#CC(C#N)=NNc1ccc(OC(F)(F)F)cc1 [FCCP, reference compound] as the molecule, how does the “oxidative phosphorylation / mitochondrial membrane potential by TMRE staining” value [3] read?
A: impairs oxidative phosphorylation

Q: For COc1ccc(-c2n([C@@H](C(=O)OC3C[C@H](C)CC[C@H]3C(C)C)C3CC3)c3ccccc3[n+]2C)cc1 (stereo partly drawn), which EC50 (Mut6) is on record?
A: < 100 nM
